*1 amine or outer side, *2 acyl side, *3 side chain or, on linkers, in order; H or OH if unused. Where a SMILES comes first, the peptide text is derived from it. Side-chain parts run from the residue outwards. [ ]: non-standard residue; d: D form. The star is where a group is joined. C20 diacid = O=C(O)CCCCCCCCCCCCCCCCCCC(=O)*; C18 diacid = O=C(O)CCCCCCCCCCCCCCCCC(=O)*; γGlu = O=C(O)[C@H](CCC(=O)[*:2])N[*:1]; 4Pal = N[C@@H](Cc1ccncc1)C(=O)O; αMeL = CC(C)C[C@](C)(N)C(=O)O; Iva = CC[C@](C)(N)C(=O)O; Orn = NCCC[C@H](N)C(=O)O; AEEA = NCCOCCOCC(=O)O; Aib = CC(C)(N)C(=O)O
What was measured:
human GcgR = target: T1, human GcgR (Homo sapiens, UniProt P47871); assay: [125I]-Glucagon binding, SPA with WGA beads, 0.1% bacitracin; settings: geometric mean, read-out: hGcgR Ki
T1 construct: expressed in transfected cells; crude membranes
Outline: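 SPA competition binding with WGA beads on crude membranes from HEK293 cells stably expressing hGcgR. Buffer: 25 mM HEPES pH 7.4, 2.5 mM CaCl2, 1 mM MgCl2, 0.1% bacitracin, 0.003% Tween-20; 10-point 3-fold dilutions, NSB with 1 μM Gcg.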

human GLP-1R = target: T2, human GLP-1R (Homo sapiens, UniProt P43220); assay: [125I]-GLP-1 binding, SPA with WGA beads, 0.1% bacitracin; settings: geometric mean, read-out: hGLP1R Ki
T2 construct: expressed in transfected cells; crude membranes
Outline: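 Binding buffer was 25 mM HEPES pH 7.4 with 2.5 mM CaCl2, 1 mM MgCl2, 0.1% (w/v) bacitracin, 0.003% Tween-20 and EDTA-free protease inhibitors. Four-parameter regression gave IC50, converted to Ki (geometric mean, SEM, n independent days).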

T2 sequence (P43220 24-463): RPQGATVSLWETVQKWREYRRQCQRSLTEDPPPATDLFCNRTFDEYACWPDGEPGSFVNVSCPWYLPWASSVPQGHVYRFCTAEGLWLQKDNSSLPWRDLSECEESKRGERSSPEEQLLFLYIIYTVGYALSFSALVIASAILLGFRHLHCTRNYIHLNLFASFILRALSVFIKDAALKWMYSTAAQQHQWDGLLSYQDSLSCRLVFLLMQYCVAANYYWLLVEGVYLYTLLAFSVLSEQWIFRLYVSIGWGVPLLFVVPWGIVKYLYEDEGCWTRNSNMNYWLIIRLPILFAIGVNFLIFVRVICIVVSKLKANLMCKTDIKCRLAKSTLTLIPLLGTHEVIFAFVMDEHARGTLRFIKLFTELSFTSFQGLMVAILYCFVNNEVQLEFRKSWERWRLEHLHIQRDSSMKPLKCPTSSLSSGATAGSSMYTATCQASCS
T1 sequence (P47871 26-477): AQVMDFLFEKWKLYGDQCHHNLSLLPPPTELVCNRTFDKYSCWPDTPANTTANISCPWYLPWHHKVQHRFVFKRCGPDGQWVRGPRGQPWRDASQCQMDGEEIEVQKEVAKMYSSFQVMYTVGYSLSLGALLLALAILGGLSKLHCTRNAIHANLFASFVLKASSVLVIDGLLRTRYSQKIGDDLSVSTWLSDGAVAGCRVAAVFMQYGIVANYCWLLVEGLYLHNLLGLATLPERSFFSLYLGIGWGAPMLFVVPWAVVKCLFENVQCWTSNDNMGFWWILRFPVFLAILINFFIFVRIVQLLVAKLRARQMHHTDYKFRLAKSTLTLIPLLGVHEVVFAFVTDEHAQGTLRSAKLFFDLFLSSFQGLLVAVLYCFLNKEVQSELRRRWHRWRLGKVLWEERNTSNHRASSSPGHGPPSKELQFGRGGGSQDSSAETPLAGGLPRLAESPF

| Structure (SMILES) | Ki (human GcgR) | Ki (human GLP-1R) |
| --- | --- | --- |
| CC[C@H](C)[C@H](NC(=O)[C@H](Cc1ccccc1)NC(=O)[C@@H](NC(=O)CNC(=O)[C@H](CCC(=O)O)NC(=O)C(C)(C)NC(=O)[C@@H](N)Cc1ccc(O)cc1)[C@@H](C)O)C(=O)N[C@@H](CO)C(=O)N[C@@H](CC(=O)O)C(=O)N[C@@H](Cc1ccc(O)cc1)C(=O)N[C@@H](CO)C(=O)N[C@H](C(=O)N[C@@](C)(CC(C)C)C(=O)N[C@@H](CC(C)C)C(=O)N[C@@H](CC(=O)O)C(=O)N[C@@H](CCC(=O)O)C(=O)N[C@@H](CCCCNC(=O)COCCOCCNC(=O)COCCOCCNC(=O)CC[C@H](NC(=O)CCCCCCCCCCCCCCCCCCC(=O)O)C(=O)O)C(=O)N[C@@H](Cc1c[nH]cn1)C(=O)N[C@@H](CCC(N)=O)C(=O)NC(C)(C)C(=O)N[C@@H](CC(=O)O)C(=O)N[C@@H](Cc1ccccc1)C(=O)N[C@H](C(=O)N[C@@H](CCC(=O)O)C(=O)N[C@@H](Cc1ccncc1)C(=O)N[C@@H](CC(C)C)C(=O)N[C@@H](CC(C)C)C(=O)N[C@@H](C)C(=O)N[C@@H](C)C(=O)NCC(=O)N1CCC[C@H]1C(=O)N[C@@H](CO)C(=O)N[C@@H](CO)C(=O)NCC(=O)N[C@@H](C)C(=O)N1CCC[C@H]1C(=O)N1CCC[C@H]1C(=O)N1CCC[C@H]1C(=O)N[C@@H](CO)C(N)=O)C(C)C)[C@@H](C)CC [Example 85] | 800 nM | 220 nM |
| CC[C@H](C)[C@H](NC(=O)[C@H](Cc1ccccc1)NC(=O)[C@@H](NC(=O)CNC(=O)[C@H](CCC(=O)O)NC(=O)C(C)(C)NC(=O)[C@@H](N)Cc1ccc(O)cc1)[C@@H](C)O)C(=O)N[C@@H](CO)C(=O)N[C@@H](CC(=O)O)C(=O)N[C@@H](Cc1ccc(O)cc1)C(=O)N[C@@H](CO)C(=O)N[C@H](C(=O)N[C@@](C)(CC(C)C)C(=O)N[C@@H](CC(C)C)C(=O)N[C@@H](CC(=O)O)C(=O)N[C@@H](CCC(=O)O)C(=O)N[C@@H](CCCCNC(=O)COCCOCCNC(=O)COCCOCCNC(=O)CC[C@H](NC(=O)CCCCCCCCCCCCCCCCCCC(=O)O)C(=O)O)C(=O)N[C@@H](Cc1c[nH]cn1)C(=O)N[C@@H](CCC(N)=O)C(=O)NC(C)(C)C(=O)N[C@@H](CC(=O)O)C(=O)N[C@@H](Cc1ccccc1)C(=O)N[C@H](C(=O)N[C@@H](CCC(=O)O)C(=O)N[C@@H](Cc1ccncc1)C(=O)N[C@@H](CC(C)C)C(=O)N[C@@H](CC(C)C)C(=O)N[C@@H](C)C(=O)NCC(=O)NCC(=O)N1CCC[C@H]1C(=O)N[C@@H](CO)C(=O)N[C@@H](CO)C(=O)NCC(=O)N[C@@H](C)C(=O)N1CCC[C@H]1C(=O)N1CCC[C@H]1C(=O)N1CCC[C@H]1C(=O)N[C@@H](CO)C(N)=O)C(C)C)[C@@H](C)CC [Example 86] | 462 nM | 108 nM |
| CC[C@H](C)[C@H](NC(=O)[C@H](Cc1ccccc1)NC(=O)[C@@H](NC(=O)CNC(=O)[C@H](CCC(=O)O)NC(=O)C(C)(C)NC(=O)[C@@H](N)Cc1ccc(O)cc1)[C@@H](C)O)C(=O)N[C@@H](CO)C(=O)N[C@@H](CC(=O)O)C(=O)N[C@@H](Cc1ccc(O)cc1)C(=O)N[C@@H](CO)C(=O)N[C@H](C(=O)N[C@@](C)(CC(C)C)C(=O)N[C@@H](CC(C)C)C(=O)N[C@@H](CC(=O)O)C(=O)N[C@@H](CCCN)C(=O)N[C@@H](CCCCNC(=O)COCCOCCNC(=O)COCCOCCNC(=O)CC[C@H](NC(=O)CCCCCCCCCCCCCCCCC(=O)O)C(=O)O)C(=O)N[C@@H](Cc1c[nH]cn1)C(=O)N[C@@H](CCC(N)=O)C(=O)NC(C)(C)C(=O)N[C@@H](CC(=O)O)C(=O)N[C@@H](Cc1ccccc1)C(=O)N[C@H](C(=O)N[C@@H](CCC(=O)O)C(=O)N[C@@H](Cc1ccncc1)C(=O)N[C@@H](CC(C)C)C(=O)N[C@@H](CC(C)C)C(=O)N[C@@H](CCC(=O)O)C(=O)N[C@@H](C)C(=O)NCC(=O)N1CCC[C@H]1C(=O)N[C@@H](CO)C(=O)N[C@@H](CO)C(=O)NCC(=O)N[C@@H](C)C(=O)N1CCC[C@H]1C(=O)N1CCC[C@H]1C(=O)N1CCC[C@H]1C(=O)N[C@@H](CO)C(N)=O)C(C)C)[C@@H](C)CC [Example 87] (H-Y[Aib]EGTFISDYSI[αMeL]LD[Orn]K([AEEA-AEEA-γGlu-C18 diacid])HQ[Aib]DFVE[4Pal]LLEAGPSSGAPPPS-NH2) | 576 nM | 849 nM |
| CC[C@H](C)[C@H](NC(=O)[C@H](CO)NC(=O)[C@H](Cc1ccc(O)cc1)NC(=O)[C@H](CC(=O)O)NC(=O)[C@H](CO)NC(=O)[C@@H](NC(=O)[C@](C)(CC)NC(=O)[C@@H](NC(=O)CNC(=O)[C@H](CCC(=O)O)NC(=O)C(C)(C)NC(=O)[C@@H](N)Cc1ccc(O)cc1)[C@@H](C)O)[C@@H](C)CC)C(=O)N[C@@](C)(CC(C)C)C(=O)N[C@@H](CC(C)C)C(=O)N[C@@H](CC(=O)O)C(=O)N[C@@H](CCCCN)C(=O)N[C@@H](CCCCNC(=O)COCCOCCNC(=O)COCCOCCNC(=O)CC[C@H](NC(=O)CCCCCCCCCCCCCCCCCCC(=O)O)C(=O)O)C(=O)N[C@@H](Cc1c[nH]cn1)C(=O)N[C@@H](CCC(N)=O)C(=O)NC(C)(C)C(=O)N[C@@H](CC(=O)O)C(=O)N[C@@H](Cc1ccccc1)C(=O)N[C@H](C(=O)N[C@@H](CCC(=O)O)C(=O)N[C@@H](Cc1ccncc1)C(=O)N[C@@H](CC(C)C)C(=O)N[C@@H](CC(C)C)C(=O)N[C@@H](CCC(=O)O)C(=O)N[C@@H](C)C(=O)NCC(=O)N1CCC[C@H]1C(=O)N[C@@H](CO)C(=O)N[C@@H](CO)C(=O)NCC(=O)N[C@@H](C)C(=O)N1CCC[C@H]1C(=O)N1CCC[C@H]1C(=O)N1CCC[C@H]1C(=O)N[C@@H](CO)C(N)=O)C(C)C [Example 88] (H-Y[Aib]EGT[Iva]ISDYSI[αMeL]LDKK([AEEA-AEEA-γGlu-C20 diacid])HQ[Aib]DFVE[4Pal]LLEAGPSSGAPPPS-NH2) | 788 nM | 261 nM |
| CC[C@H](C)[C@H](NC(=O)[C@H](CC(C)C)NC(=O)[C@@H](NC(=O)CNC(=O)[C@H](CCC(=O)O)NC(=O)C(C)(C)NC(=O)[C@@H](N)Cc1ccc(O)cc1)[C@@H](C)O)C(=O)N[C@@H](CO)C(=O)N[C@@H](CC(=O)O)C(=O)N[C@@H](Cc1ccc(O)cc1)C(=O)N[C@@H](CO)C(=O)N[C@H](C(=O)N[C@@](C)(CC(C)C)C(=O)N[C@@H](CC(C)C)C(=O)N[C@@H](CC(=O)O)C(=O)N[C@@H](CCCCN)C(=O)N[C@@H](CCCCNC(=O)COCCOCCNC(=O)COCCOCCNC(=O)CC[C@H](NC(=O)CCCCCCCCCCCCCCCCCCC(=O)O)C(=O)O)C(=O)N[C@@H](Cc1c[nH]cn1)C(=O)N[C@@H](CCC(N)=O)C(=O)NC(C)(C)C(=O)N[C@@H](CC(=O)O)C(=O)N[C@@H](Cc1ccccc1)C(=O)N[C@H](C(=O)N[C@@H](CCC(=O)O)C(=O)N[C@@H](Cc1ccncc1)C(=O)N[C@@H](CC(C)C)C(=O)N[C@@H](CC(C)C)C(=O)N[C@@H](CCC(=O)O)C(=O)N[C@@H](C)C(=O)NCC(=O)N1CCC[C@H]1C(=O)N[C@@H](CO)C(=O)N[C@@H](CO)C(=O)NCC(=O)N[C@@H](C)C(=O)N1CCC[C@H]1C(=O)N1CCC[C@H]1C(=O)N1CCC[C@H]1C(=O)N[C@@H](CO)C(N)=O)C(C)C)[C@@H](C)CC [Example 89] (H-Y[Aib]EGTLISDYSI[αMeL]LDKK([AEEA-AEEA-γGlu-C20 diacid])HQ[Aib]DFVE[4Pal]LLEAGPSSGAPPPS-NH2) | 611 nM | 294 nM |
